The text below walks through data of PubChem BioAssay (NCI).

Test systems include OVCAR-8 ovarian; SNB-19 CNS; LOX IMVI melanoma; IGROV1 ovarian; SK-MEL-5 melanoma; SK-MEL-2 melanoma; SK-MEL-28 melanoma; DU-145 prostate; MDA-MB-231 breast.
Holding throughout (experiment): growth of human tumour cells (NCI), 48 h

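Assay format: 96-well plates, 48-hour exposure. At the GI50, growth is halved. TGI: concentration producing complete growth inhibition.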

As to `C[C@@H](NC1CCCC[C@H]1O)c1ccccc1` (some centres undefined), the TGI in the assay with OVCAR-8 ovarian, with SNB-19 CNS, with LOX IMVI melanoma, with IGROV1 ovarian, with SK-MEL-5 melanoma and with SK-MEL-2 melanoma was over 100 µM each time. In the assay with SK-MEL-28 melanoma, this molecule gave a TGI of over 100 µM.

In the case of `CN1c2ccccc2N(C(=O)c2ccc([N+](=O)[O-])cc2)C(CC(=O)O)c2cccn21` (centres undefined), the TGI with OVCAR-8 ovarian, with SNB-19 CNS, with LOX IMVI melanoma, with IGROV1 ovarian, in the assay with SK-MEL-5 melanoma and with SK-MEL-2 melanoma was over 100 µM throughout. Moreover, in the assay on SK-MEL-28 melanoma, the TGI was over 100 µM.

For `Cn1c2c(c3ccccc31)CCN(CCCCN1CCCCC1)C2=O`, the TGI in the assay on OVCAR-8 ovarian, in the assay with SNB-19 CNS, in the assay on IGROV1 ovarian, in the assay on SK-MEL-5 melanoma, with SK-MEL-2 melanoma and with SK-MEL-28 melanoma was over 100 µM in each case.

As for `C/C(=C1/N=C(c2cc([N+](=O)[O-])ccc2Cl)N(c2cccc(C)c2)C1=O)c1cc2ccccc2oc1=O`, the TGI was over 100 µM with OVCAR-8 ovarian; over 100 µM in the assay with SNB-19 CNS; 37.1 µM in the assay on LOX IMVI melanoma; over 100 µM in the assay on IGROV1 ovarian; 53.8 µM with SK-MEL-5 melanoma; over 100 µM in the assay with SK-MEL-2 melanoma. Besides, the TGI in the assay on SK-MEL-28 melanoma is over 100 µM.

For `CN(CCN1C(=O)c2cc([N+](=O)[O-])cc3cc([N+](=O)[O-])cc(c23)C1=O)CCN1C(=O)c2cc([N+](=O)[O-])cc3cc([N+](=O)[O-])cc(c23)C1=O`, the TGI in the assay on OVCAR-8 ovarian is 29.6 µM; in the assay with SNB-19 CNS, over 100 µM; with LOX IMVI melanoma, 1.44 µM; in the assay on IGROV1 ovarian, 5.51 µM; with SK-MEL-5 melanoma, 8.49 µM; with SK-MEL-2 melanoma, 5.21 µM. For the same molecule, in the assay with SK-MEL-28 melanoma, the TGI was 20.3 µM.

As for `CC(C)(O)[C@@H]1CC[C@@]2(C)CCCC(O)C2(O)C1` (some centres undefined), the TGI with OVCAR-8 ovarian, with SNB-19 CNS, in the assay on LOX IMVI melanoma, in the assay on IGROV1 ovarian, with SK-MEL-5 melanoma and in the assay with SK-MEL-2 melanoma was over 100 µM throughout. In addition, the TGI with SK-MEL-28 melanoma is over 100 µM.

Take `Cc1nc(-n2nc(-c3ccccc3)cc2-c2ccccc2)sc1C(=O)/C=C/c1ccc(/C=C/C(=O)c2sc(-n3nc(-c4ccccc4)cc3-c3ccccc3)nc2C)cc1`: the TGI with OVCAR-8 ovarian was over 100 µM; in the assay on SNB-19 CNS it was 42 µM; in the assay with LOX IMVI melanoma it was 40.6 µM; with IGROV1 ovarian, 28.6 µM; with SK-MEL-2 melanoma, 51.8 µM; with SK-MEL-28 melanoma, 41.8 µM.

Turning to `COc1ccc(C(c2cc(OC)c(OC)c(OC)c2)n2ccnc2)cc1O` (centres undefined), the GI50 in the assay with SNB-19 CNS is 0.532 µM; with DU-145 prostate, 0.407 µM; in the assay with LOX IMVI melanoma, 0.525 µM; in the assay on IGROV1 ovarian, 0.862 µM; with MDA-MB-231 breast, 0.664 µM; in the assay on SK-MEL-5 melanoma it was 0.367 µM. Moreover, the TGI was over 100 µM in the assay with SNB-19 CNS; over 100 µM in the assay on DU-145 prostate; over 100 µM in the assay on LOX IMVI melanoma; over 100 µM in the assay on IGROV1 ovarian; over 100 µM in the assay with MDA-MB-231 breast; 3.18 µM in the assay with SK-MEL-5 melanoma.

For `O=C1NC(Cc2ccc(O)cc2)C(=O)N2CCCC12` (centres undefined), the TGI with OVCAR-8 ovarian, with SNB-19 CNS, in the assay on LOX IMVI melanoma, in the assay with IGROV1 ovarian, with SK-MEL-5 melanoma and with SK-MEL-2 melanoma was over 100 µM each time. Further, in the assay with SK-MEL-28 melanoma, the TGI is over 100 µM.

Regarding `COc1cc(C2Cc3ncccc3-c3[nH]c(=O)c4cccnc4c32)cc(OC)c1OC` (centres undefined), the GI50 is 0.97 µM in the assay on OVCAR-8 ovarian; 0.823 µM in the assay with SNB-19 CNS; 0.428 µM in the assay on DU-145 prostate; 0.452 µM with LOX IMVI melanoma; 0.46 µM in the assay with IGROV1 ovarian; 3.88 µM in the assay with MDA-MB-231 breast. Besides, the GI50 was 0.339 µM in the assay with SK-MEL-5 melanoma, 0.485 µM with SK-MEL-2 melanoma and 36 µM with SK-MEL-28 melanoma. Besides, the TGI in the assay on OVCAR-8 ovarian, in the assay on SNB-19 CNS, in the assay on DU-145 prostate, in the assay on LOX IMVI melanoma, in the assay with IGROV1 ovarian and with MDA-MB-231 breast was over 100 µM each time. For the same molecule, the TGI in the assay with SK-MEL-5 melanoma is 20.2 µM; in the assay on SK-MEL-2 melanoma, over 100 µM; in the assay on SK-MEL-28 melanoma, over 100 µM.

In the case of `COC(=O)CCC(NC(=S)N/N=C(\C)c1cnc2ccccc2n1)C(=O)OC` (centres undefined), the TGI was over 100 µM in the assay with OVCAR-8 ovarian; over 100 µM in the assay on SNB-19 CNS; 66.3 µM in the assay with LOX IMVI melanoma; over 100 µM in the assay with IGROV1 ovarian; 80.7 µM with SK-MEL-5 melanoma; over 100 µM in the assay on SK-MEL-2 melanoma. In addition, the TGI with SK-MEL-28 melanoma was over 100 µM.

On to `CN(C)C=Nc1ccn(CCO)c(=O)n1`, for which the TGI in the assay on OVCAR-8 ovarian, with SNB-19 CNS, in the assay with LOX IMVI melanoma, in the assay with IGROV1 ovarian, with SK-MEL-5 melanoma and in the assay on SK-MEL-2 melanoma was over 100 µM in each case. This molecule gave a TGI in the assay with SK-MEL-28 melanoma of over 100 µM.

For the molecule `COC(=O)C(C(=O)C(=O)Nc1c(C)cccc1C)c1cnc2ccccc2n1` (centres undefined), the TGI in the assay with OVCAR-8 ovarian, in the assay on SNB-19 CNS, in the assay with LOX IMVI melanoma, with IGROV1 ovarian, with SK-MEL-5 melanoma and in the assay on SK-MEL-2 melanoma was over 100 µM in each case. Besides, the TGI in the assay with SK-MEL-28 melanoma was over 100 µM.

Regarding `N#CCCN(c1ccc(C=Nc2ccccc2)cc1)S(=O)(=O)c1ccccc1`, the TGI in the assay with OVCAR-8 ovarian, with SNB-19 CNS, with IGROV1 ovarian, with SK-MEL-5 melanoma, in the assay with SK-MEL-2 melanoma and in the assay with SK-MEL-28 melanoma was over 100 µM throughout.

Turning to `O=C(N/C(=C\c1ccc(Cl)cc1)c1nc2ccccc2[nH]1)c1ccccc1`, the TGI with OVCAR-8 ovarian stood at 52.8 µM; with SNB-19 CNS it was 88 µM; with LOX IMVI melanoma, 31.5 µM; in the assay with IGROV1 ovarian, 60 µM; with SK-MEL-5 melanoma it was 35.3 µM; in the assay with SK-MEL-2 melanoma, 42.2 µM. For the same molecule, in the assay with SK-MEL-28 melanoma, the TGI turned out to be 36.4 µM.

As for `CN1C(=O)CCC1(O)C1C=CC=CC1` (centres undefined), the TGI in the assay with OVCAR-8 ovarian, in the assay with SNB-19 CNS, with LOX IMVI melanoma, in the assay with IGROV1 ovarian, in the assay on SK-MEL-5 melanoma and with SK-MEL-28 melanoma was over 100 µM in each case.
